What was measured:
Test in all cases: cells
SW780 = assay type: functional, cell-based, Homo sapiens; conditions: Homo sapiens, SW780
Description: SANGER: Inhibition of human SW780 cell growth in a cell viability assay.

SNU-387 = assay type: functional, cell-based, Homo sapiens; conditions: Homo sapiens, SNU-387
Description: SANGER: Inhibition of human SNU-387 cell growth in a cell viability assay.

NCI-H1993 = assay type: functional, cell-based, Homo sapiens; conditions: Homo sapiens, NCI-H1993
Description: SANGER: Inhibition of human NCI-H1993 cell growth in a cell viability assay.

KYSE-150 cell line = assay type: functional, cell-based, Homo sapiens; conditions: Homo sapiens, KYSE-150
Description: SANGER: Inhibition of human KYSE-150 cell growth in a cell viability assay.

NCI-H1792 = assay type: functional, cell-based, Homo sapiens; conditions: Homo sapiens, NCI-H1792
Description: SANGER: Inhibition of human NCI-H1792 cell growth in a cell viability assay.

697 = assay type: functional, cell-based; conditions: Homo sapiens
Description: SANGER: Inhibition of human 697 cell growth in a cell viability assay.

SJSA-1 = assay type: functional, cell-based, Homo sapiens; conditions: Homo sapiens, SJSA-1
Description: SANGER: Inhibition of human SJSA-1 cell growth in a cell viability assay.

A-375 = assay type: functional, cell-based, Homo sapiens; conditions: Homo sapiens, A-375
Description: SANGER: Inhibition of human A375 cell growth in a cell viability assay.

KURAMOCHI = assay type: functional, cell-based; conditions: Homo sapiens
Description: SANGER: Inhibition of human KURAMOCHI cell growth in a cell viability assay.

EW-3 = assay type: functional, cell-based; conditions: Homo sapiens
Description: SANGER: Inhibition of human EW-3 cell growth in a cell viability assay.

SNU-449 = assay type: functional, cell-based, Homo sapiens; conditions: Homo sapiens, SNU-449
Description: SANGER: Inhibition of human SNU-449 cell growth in a cell viability assay.

CAL-33 = assay type: functional, cell-based, Homo sapiens; conditions: Homo sapiens, CAL-33
Description: SANGER: Inhibition of human CAL-33 cell growth in a cell viability assay.

LAMA-84 = assay type: functional, cell-based; conditions: Homo sapiens
Description: SANGER: Inhibition of human LAMA-84 cell growth in a cell viability assay.

DMS-114 = assay type: functional, cell-based, Homo sapiens; conditions: Homo sapiens, DMS-114
OVCAR-8 = assay type: functional, cell-based, Homo sapiens; conditions: Homo sapiens, OVCAR-8
Description: SANGER: Inhibition of human OVCAR-8 cell growth in a cell viability assay.

DoTc2-4510 = assay type: functional, cell-based, Homo sapiens; conditions: Homo sapiens, DoTc2-4510
CAL-39 = assay type: functional, cell-based, Homo sapiens; conditions: Homo sapiens, CAL-39
Description: SANGER: Inhibition of human CAL-39 cell growth in a cell viability assay.

COLO-800 = assay type: functional, cell-based, Homo sapiens; conditions: Homo sapiens, COLO-800
Description: SANGER: Inhibition of human COLO-800 cell growth in a cell viability assay.

HCC2157 = assay type: functional, cell-based; conditions: Homo sapiens
Description: SANGER: Inhibition of human HCC2157 cell growth in a cell viability assay.

SK-N-DZ = assay type: functional, cell-based, Homo sapiens; conditions: Homo sapiens, SK-N-DZ
Description: SANGER: Inhibition of human SK-N-DZ cell growth in a cell viability assay.

NCI-H2122 = assay type: functional, cell-based, Homo sapiens; conditions: Homo sapiens, NCI-H2122
Description: SANGER: Inhibition of human NCI-H2122 cell growth in a cell viability assay.

LU-134-A = assay type: functional, cell-based; conditions: Homo sapiens
Description: SANGER: Inhibition of human LU-134-A cell growth in a cell viability assay.

AN3-CA = assay type: functional, cell-based; conditions: Homo sapiens
Description: SANGER: Inhibition of human AN3-CA cell growth in a cell viability assay.

HT-1376 = assay type: functional, cell-based, Homo sapiens; conditions: Homo sapiens, HT-1376
Description: SANGER: Inhibition of human HT-1376 cell growth in a cell viability assay.

EW-13 = assay type: functional, cell-based; conditions: Homo sapiens
Description: SANGER: Inhibition of human EW-13 cell growth in a cell viability assay.

NCI-H446 = assay type: functional, cell-based; conditions: Homo sapiens
Description: SANGER: Inhibition of human NCI-H446 cell growth in a cell viability assay.

COR-L105 = assay type: functional, cell-based, Homo sapiens; conditions: Homo sapiens, COR-L105
Description: SANGER: Inhibition of human COR-L105 cell growth in a cell viability assay.

UMC-11 = assay type: functional, cell-based, Homo sapiens; conditions: Homo sapiens, UMC-11
Description: SANGER: Inhibition of human UMC-11 cell growth in a cell viability assay.

GT3TKB = assay type: functional, cell-based, Homo sapiens; conditions: Homo sapiens, GT3TKB
Description: SANGER: Inhibition of human GT3TKB cell growth in a cell viability assay.

CAPAN-1 = assay type: functional, cell-based, Homo sapiens; conditions: Homo sapiens, CAPAN-1
Description: SANGER: Inhibition of human CAPAN-1 cell growth in a cell viability assay.

A2058 = assay type: functional, cell-based; conditions: Homo sapiens
Description: SANGER: Inhibition of human A2058 cell growth in a cell viability assay.

HCC1806 = assay type: functional, cell-based, Homo sapiens; conditions: Homo sapiens, HCC1806
Description: SANGER: Inhibition of human HCC1806 cell growth in a cell viability assay.

NCI-H1299 = assay type: functional, cell-based, Homo sapiens; conditions: Homo sapiens, NCI-H1299
Description: SANGER: Inhibition of human NCI-H1299 cell growth in a cell viability assay.

C3A = assay type: functional, cell-based, Homo sapiens; conditions: Homo sapiens, C3A
Description: SANGER: Inhibition of human C3A cell growth in a cell viability assay.

AM-38 = assay type: functional, cell-based, Homo sapiens; conditions: Homo sapiens, AM-38
Description: SANGER: Inhibition of human AM-38 cell growth in a cell viability assay.

ES8 = assay type: functional, cell-based, Homo sapiens; conditions: Homo sapiens, ES8
Description: SANGER: Inhibition of human ES8 cell growth in a cell viability assay.

MCF7 = assay type: functional, cell-based, Homo sapiens; conditions: Homo sapiens, MCF7
Description: SANGER: Inhibition of human MCF7 cell growth in a cell viability assay.

MKN-28 = assay type: functional, cell-based, Homo sapiens; conditions: Homo sapiens, MKN-28
Description: SANGER: Inhibition of human MKN28 cell growth in a cell viability assay.

EOL1 = assay type: functional, cell-based; conditions: Homo sapiens
Description: SANGER: Inhibition of human EoL-1-cell cell growth in a cell viability assay.

Calu-3 = assay type: functional, cell-based, Homo sapiens; conditions: Homo sapiens, Calu-3
Description: SANGER: Inhibition of human Calu-3 cell growth in a cell viability assay.

A673 = assay type: functional, cell-based, Homo sapiens; conditions: Homo sapiens, A673
Description: SANGER: Inhibition of human A673 cell growth in a cell viability assay.

KY821 = assay type: functional, cell-based; conditions: Homo sapiens
Description: SANGER: Inhibition of human KY821 cell growth in a cell viability assay.

BXPC-3 = assay type: functional, cell-based, Homo sapiens; conditions: Homo sapiens, BXPC-3
Description: SANGER: Inhibition of human BxPC-3 cell growth in a cell viability assay.

HCC1954 = assay type: functional, cell-based, Homo sapiens; conditions: Homo sapiens, HCC1954
Description: SANGER: Inhibition of human HCC1954 cell growth in a cell viability assay.

SW1573 = assay type: functional, cell-based, Homo sapiens; conditions: Homo sapiens, SW1573
Description: SANGER: Inhibition of human SW1573 cell growth in a cell viability assay.

SW684 = assay type: functional, cell-based, Homo sapiens; conditions: Homo sapiens, SW684
Description: SANGER: Inhibition of human SW684 cell growth in a cell viability assay.

TE-5 = assay type: functional, cell-based, Homo sapiens; conditions: Homo sapiens, TE-5
Description: SANGER: Inhibition of human TE-5 cell growth in a cell viability assay.

NCI-H2347 = assay type: functional, cell-based, Homo sapiens; conditions: Homo sapiens, NCI-H2347
Description: SANGER: Inhibition of human NCI-H2347 cell growth in a cell viability assay.

TGBC24TKB = assay type: functional, cell-based, Homo sapiens; conditions: Homo sapiens, TGBC24TKB
Description: SANGER: Inhibition of human TGBC24TKB cell growth in a cell viability assay.

EC-GI-10 = assay type: functional, cell-based, Homo sapiens; conditions: Homo sapiens, EC-GI-10
Description: SANGER: Inhibition of human EC-GI-10 cell growth in a cell viability assay.

HuTu80 = assay type: functional, cell-based, Homo sapiens, HUTU-80; conditions: Homo sapiens, HuTu80
Description: SANGER: Inhibition of human HUTU-80 cell growth in a cell viability assay.

## COc1ccc(C2=N[C@@H](c3ccc(Cl)cc3)[C@@H](c3ccc(Cl)cc3)N2C(=O)N2CCNC(=O)C2)c(OC(C)C)c1 [NUTLIN-3]
SW780
  IC50: 2.51 µM
SNU-387
  IC50: > 8 µM
NCI-H1993
  IC50: > 8 µM
KYSE-150 cell line
  IC50: > 8 µM
NCI-H1792
  IC50: > 8 µM
697
  IC50: 5.45 µM
SJSA-1
  IC50: 2.83 µM
A-375
  IC50: 4.34 µM
KURAMOCHI
  IC50: > 8 µM
EW-3
  IC50: > 8 µM
SNU-449
  IC50: > 8 µM
CAL-33
  IC50: > 8 µM
LAMA-84
  IC50: > 8 µM
DMS-114
  IC50: > 8 µM
OVCAR-8
  IC50: > 8 µM
DoTc2-4510
  IC50: > 8 µM
CAL-39
  IC50: > 8 µM
COLO-800
  IC50: > 8 µM
HCC2157
  IC50: > 8 µM
SK-N-DZ
  IC50: > 8 µM
NCI-H2122
  IC50: 6.59 µM
LU-134-A
  IC50: > 8 µM
AN3-CA
  IC50: > 8 µM
HT-1376
  IC50: > 8 µM
EW-13
  IC50: > 8 µM
NCI-H446
  IC50: > 8 µM
COR-L105
  IC50: > 8 µM
UMC-11
  IC50: > 8 µM
GT3TKB
  IC50: > 8 µM
CAPAN-1
  IC50: > 8 µM
A2058
  IC50: > 8 µM
HCC1806
  IC50: > 8 µM
NCI-H1299
  IC50: > 8 µM
C3A
  IC50: > 8 µM
AM-38
  IC50: 6.76 µM
ES8
  IC50: > 8 µM
MCF7
  IC50: 5.44 µM
MKN-28
  IC50: > 8 µM
EOL1
  IC50: 1.27 µM
Calu-3
  IC50: > 8 µM
A673
  IC50: > 8 µM
KY821
  IC50: > 8 µM
BXPC-3
  IC50: > 8 µM
HCC1954
  IC50: > 8 µM
SW1573
  IC50: > 8 µM
SW684
  IC50: > 8 µM
TE-5
  IC50: > 8 µM
NCI-H2347
  IC50: > 8 µM
TGBC24TKB
  IC50: > 8 µM

## O=C1N=C(NCc2cccs2)S/C1=C\c1ccc2ncccc2c1
SW780
  IC50: > 5 µM
SNU-387
  IC50: > 5 µM
NCI-H1993
  IC50: > 5 µM
KYSE-150 cell line
  IC50: > 5 µM
NCI-H1792
  IC50: > 5 µM
697
  IC50: > 5 µM
SJSA-1
  IC50: > 5 µM
A-375
  IC50: > 5 µM
KURAMOCHI
  IC50: > 5 µM
EW-3
  IC50: > 5 µM
SNU-449
  IC50: > 5 µM
CAL-33
  IC50: > 5 µM
LAMA-84
  IC50: > 5 µM
DMS-114
  IC50: > 5 µM
OVCAR-8
  IC50: > 5 µM
DoTc2-4510
  IC50: > 5 µM
CAL-39
  IC50: > 5 µM
COLO-800
  IC50: > 5 µM
HCC2157
  IC50: > 5 µM
SK-N-DZ
  IC50: 2.02 µM
NCI-H2122
  IC50: > 5 µM
LU-134-A
  IC50: > 5 µM
AN3-CA
  IC50: > 5 µM
HT-1376
  IC50: > 5 µM
EW-13
  IC50: > 5 µM
NCI-H446
  IC50: > 5 µM
COR-L105
  IC50: > 5 µM
UMC-11
  IC50: > 5 µM
GT3TKB
  IC50: > 5 µM
CAPAN-1
  IC50: > 5 µM
A2058
  IC50: > 5 µM
HCC1806
  IC50: > 5 µM
NCI-H1299
  IC50: > 5 µM
C3A
  IC50: > 5 µM
AM-38
  IC50: > 5 µM
ES8
  IC50: > 5 µM
MCF7
  IC50: > 5 µM
MKN-28
  IC50: > 5 µM
EOL1
  IC50: > 5 µM
Calu-3
  IC50: > 5 µM
A673
  IC50: > 5 µM
KY821
  IC50: > 5 µM
BXPC-3
  IC50: > 5 µM
HCC1954
  IC50: > 5 µM
SW1573
  IC50: > 5 µM
SW684
  IC50: > 5 µM
TE-5
  IC50: > 5 µM
NCI-H2347
  IC50: > 5 µM
TGBC24TKB
  IC50: > 5 µM

## CO[C@H]1C[C@@H]2CC[C@@H](C)[C@@](O)(O2)C(=O)C(=O)N2CCCC[C@H]2C(=O)O[C@H]([C@H](C)C[C@@H]2CC[C@@H](O)[C@H](OC)C2)CC(=O)[C@H](C)/C=C(\C)[C@@H](O)[C@@H](OC)C(=O)[C@H](C)C[C@H](C)/C=C/C=C/C=C/1C [SIROLIMUS]
697
  IC50: 0.00628 µM
SJSA-1
  IC50: > 0.1 µM
KURAMOCHI
  IC50: > 0.1 µM
EW-3
  IC50: > 0.1 µM
LAMA-84
  IC50: > 0.1 µM
EC-GI-10
  IC50: > 0.1 µM
DMS-114
  IC50: > 0.1 µM
COLO-800
  IC50: > 0.1 µM
HCC2157
  IC50: > 0.1 µM
SK-N-DZ
  IC50: > 0.1 µM
LU-134-A
  IC50: > 0.1 µM
EW-13
  IC50: > 0.1 µM
NCI-H446
  IC50: > 0.1 µM
GT3TKB
  IC50: > 0.1 µM
HuTu80
  IC50: 0.00442 µM
NCI-H1299
  IC50: > 0.1 µM
AM-38
  IC50: > 0.1 µM
ES8
  IC50: > 0.1 µM
EOL1
  IC50: > 0.1 µM
KY821
  IC50: > 0.1 µM
SW684
  IC50: > 0.1 µM
TE-5
  IC50: > 0.1 µM
TGBC24TKB
  IC50: 0.00551 µM
